# Measurements reported in patent US20260344673A1, “A SOLID FORM FOR PREPARATION OF AN AQUEOUS DISPERSION, AQUEOUS DISPERSION, STABLE CONCENTRATE, COMBINED AQUEOUS DISPERSION, AND USES THEREOF” (priority 2022, published 2026).
# Assays:
# Venturia inaegualis = assay: Kirby-Bauer disk diffusion test, Venturia inaequalis; settings: Venturia inaegualis
# Method: (§1) The microbiological tests were carried out by applying Kirby-Bauer Disk Diffusion Susceptibility Test Protocol for antimicrobial activity. It is based on the formation of a concentration gradient in the growth medium during the diffusion of the active substance from the antibiogram disc (Kirby-Bauer method).
# (§2) The performance of the embodiments of the present inventions and their mixtures enriched with millbase (MFA) was analysed against the appropriate reference substance, i.e., a commercial product containing the analogue active substance with the same concentration. The prepared solutions were applied on the paper antibiograms. Then the soaked antibiograms were placed on the Petri Dishes (dish diameter 90 mm) with the growth medium for fungal pathogens V8. Composition of V8: agar, calcium carbonate and multi-vegetable juice. 3 fragments of mycelium of the tested pathogen (5×5 mm) were transplanted onto the prepared medium. As a result, the zones where the fungal growth was inhibited have been measured and compared respectively with the control sample and the analogue active substance sample.
# (§3) Assessment was carried out by determining the infested area of the Petri dish in %. These percentages have been converted into efficacy (W) according to Abbot's formula as follows: W=(1−α/β)×100 • where: • α—corresponds to the mycelium/bacterial growth of each tested sample [%], • β—corresponds to the mycelium/bacterial growth in control sample [%].
# (§4) In order to estimate if the combined action effect with the commercial fungicide, the W parameter of the mixture was compared with W parameter for particular commercial fungicide solo. Where W=0 the efficacy of the control sample (whole Petri dish covered with mycelium), and W=100 is when no mycelium growth observed.
# Botrytis cinerea = assay: Kirby-Bauer disk diffusion test, Botrytis cinerea
# Method: as §2, §3, §4
# Phytophthora megasperma = assay: Kirby-Bauer disk diffusion test, Phytophthora megasperma; settings: Phytophthora megasperma
# Method: as §1, §2, §3, §4
# Phytophthora cactorum = assay: Kirby-Bauer disk diffusion test, Phytophthora cactorum; design: % mycelium growth relative to the control: concentration or dose not given beside the values
# Method: as §2, §3, §4
# Erwinia sp. = assay: Kirby-Bauer disk diffusion test, bacterial pathogens (inhibition zones, halo effect); settings: Nutrient Agar, tank-mixes
# Colletotrichum spp. = assay: Field trial soya, efficacy against Colletotrichum spp.; type: in vivo; settings: field conditions, tank-mix, control (no treatment) 4.21
# Zymoseptoria tritici = assay: Field trial winter wheat, efficacy against Zymoseptoria tritici; type: in vivo; settings: field conditions, tank-mix, control (no treatment) 4.68
# Method: (§5) The rates of application (use) of the composition of the present invention (MFA) vary according to type of use, type of crop, the specific active ingredient in the combination, but is such that the active ingredient in the combination is an effective amount to provide the desired action (such as disease control). The application rate of the composition for a given set of conditions can readily be determined by trials.
# (§6) Field trials were conducted in Poland according to approved EPPO guidelines: PP 1/135(4), PP 1/152(4), PP 1/181(4) (general), PP 1/1(4) (sugar beet), PP 1/28 (3), PP 1/26(4) (winter wheat), PP 1/78(4) (oilseed), PP1/263 (1), PP1/16 (3) (strawberry), PP 1/2 (5), PP 1/263 (1) (potato). The spray volumes were in line with farmers' practice, varying between 200-300 l/ha. The applications were processed as per the EPPO guideline specific for each crop.
# winter wheat = assay: Field trial winter wheat, plant biomass and yield parameters; type: in vivo; settings: field conditions
# Method: as §6
# [1] = tested on: Colletotrichum gloeosporioides; assay: Kirby-Bauer disk diffusion test, Colletotrichum gloeosporioides; settings: Colletotrichum gloeosporioides
# Method: as §1, §2, §3, §4
# soya = assay: Field trial soya, plant biomass and yield parameters; type: in vivo; settings: field conditions
# Method: as §6
# oilseed rape = assay: Field trial oilseed rape, plant biomass and yield quality/quantity parameters; type: in vivo; settings: field conditions
# Method: as §6
# Fusarium oxysporum = assay: Kirby-Bauer disk diffusion test, Fusarium oxysporum; settings: Fusarium oxysporum
# Method: as §1, §2, §3, §4
# Verticillium longisporum = assay: Kirby-Bauer disk diffusion test, Verticillium longisporum
# Method: as §2, §3, §4
# Sclerotinia sclerotiorum [2] = assay: Kirby-Bauer disk diffusion test, Sclerotinia sclerotiorum
# Method: as §2, §3, §4
# Peronospora manshurica = assay: Field trial soya, efficacy against Peronospora manshurica; type: in vivo; settings: field conditions, tank-mix, control (no treatment) 5.66
# Method: as §5, §6
# [3] = tested on: Alternaria infectoria/alternata; assay: Kirby-Bauer disk diffusion test, Alternaria infectoria/alternata
# Method: as §2, §3, §4
# Phytium ultimum = assay: Kirby-Bauer disk diffusion test, Phytium ultimum
# Method: as §2, §3, §4
# Monilinia fructigena = assay: Kirby-Bauer disk diffusion test, Monilinia fructigena
# Method: as §2, §3, §4
# Fusarium equiseti = assay: Kirby-Bauer disk diffusion test, Fusarium equiseti
# Method: as §2, §3, §4
# Septoria tritici = assay: Kirby-Bauer disk diffusion test, Septoria tritici
# Method: as §2, §3, §4
# Septoria nodorum (1291) = assay: Kirby-Bauer disk diffusion test, Septoria nodorum (1291)
# Method: as §2, §3, §4
# Sclerotinia sclerotiorum [4] = assay: Field trial oilseed rape, efficacy against Sclerotinia sclerotiorum; type: in vivo; settings: field conditions, tank-mix, control (no treatment) 6.28
# Method: as §5, §6
# Phoma lingam = assay: Field trial oilseed rape, efficacy against Phoma lingam; type: in vivo; settings: field conditions, tank-mix, control (no treatment) 4.18
# Method: as §5, §6
# [5] = tested on: selected pathogens (fungi); settings: vs commercial fungicide
# spring barley [6] = settings: Montana 1981 and 1982; cited from earlier work
# spring barley [7] = settings: compared with uninoculated plots; Montana 1981 and 1982; cited from earlier work
# Cochliobolus sativus = settings: Montana 1981 and 1982; cited from earlier work
# seeds = assay: Seed treatment test: germination rate, infected seeds, shoot and root biomass (all seed species); type: in vivo; settings: applied alone and in mixtures with seed treatment fungicides
# Method: The method of treating seeds according to the embodiment of the present inventions can be characterised in that in the treatment seed with 30 g checked product with and without combination with fungicidal seed treatment products per 100 kg of seed are employed. The results were assessed due to EPPO: PP1/152(4), PP 1/19 (5), PP 1/135(4) and PP1/181(4) Standards.
# Seed treatment test was conducted according to International Rules for Seed Testing 2018 (ISTA) under laboratory conditions using sterile paper as a growing media. The tests were continued for 14 days. As a result, the germination rate and the number of infected seeds were calculated. The biomass (shoots and roots) was collected and measured accordingly.
structure (smiles),measurement,setting,value
COC=C(C(=O)OC)c1ccccc1Oc1cc(Oc2ccccc2C#N)ncn1 [Azoxystrobin (250)],% mycelium growth relative to the control,Venturia inaegualis; V8 medium,0%
same,mycelium growth,"Venturia inaegualis; V8 medium, control 2.9 cm",0 cm
same,EFFICACY W (Abbot),"Venturia inaegualis; control W=0, no growth W=100",100
same,% mycelium growth relative to the control,Botrytis cinerea; V8 medium,100%
same,mycelium growth,"Botrytis cinerea; V8 medium, control 8.6 cm",8.6 cm
same,EFFICACY W (Abbot),"Botrytis cinerea; control W=0, no growth W=100",0
same,% mycelium growth relative to the control,Phytophthora megasperma; V8 medium,70%
same,mycelium growth,"Phytophthora megasperma; V8 medium, control 5.4 cm (8.6 cm in Table 25)",3.8 cm
same,EFFICACY W (Abbot),"Phytophthora megasperma; control W=0, no growth W=100",30
same,% mycelium growth relative to the control,Phytophthora cactorum; V8 medium,33%
same,mycelium growth,"Phytophthora cactorum; V8 medium, control 5.4 cm",1.8 cm
same,EFFICACY W (Abbot),"Phytophthora cactorum; control W=0, no growth W=100",67
same,Efficacy %,Erwinia sp.; control 0.00,22.86%
same,Erwinia sp. bacterial growth,Erwinia sp.; control 3.5 mm,2.7 mm
same,Efficacy Colletotrichum spp.,Colletotrichum spp.,1.76 scale 0-10
same,Efficacy Zymoseptoria tritici,Zymoseptoria tritici,4.32 scale 0-10
same,Bulk density,winter wheat; control 0.67,0.63 kg/L
same,The Thousand Grain Weight (TGW),winter wheat; control 41.90,43.60 g
same,Yield,winter wheat; control 76.50,66.33 dt/ha
same,Biomass,winter wheat; control 157.50,147.50 dt/ha
same,% mycelium growth relative to the control,[1]; V8 medium,50%
same,mycelium growth,"[1]; V8 medium, control 5.4 cm",2.7 cm
same,EFFICACY W (Abbot),"[1]; control W=0, no growth W=100",50
same,Bulk density,soya; control 0.728,0.627 kg/L
same,Yield,soya; control 37.41,38.26 dt/ha
same,Biomass,soya; control 190.0,156.7 dt/ha
same,The Thousand Grain Weight (TGW),soya; control 205.3,204.0 g
same,The Thousand Grain Weight (TGW),"oilseed rape; Tables 31-33, control 5.64",5.34 g
same,Bulk density,oilseed rape; control 0.65,0.65 kg/L
same,Yield,oilseed rape; control 25.49,25.54 dt/ha
same,Biomass,oilseed rape; control 90.00,112.50 dt/ha
same,% mycelium growth relative to the control,Fusarium oxysporum; V8 medium,100%
same,mycelium growth,"Fusarium oxysporum; V8 medium, control 8.6 cm",8.6 cm
same,EFFICACY W (Abbot),"Fusarium oxysporum; control W=0, no growth W=100",0
same,% mycelium growth relative to the control,Verticillium longisporum; V8 medium,56%
same,mycelium growth,"Verticillium longisporum; V8 medium, control 3.9 cm",2.2 cm
same,EFFICACY W (Abbot),"Verticillium longisporum; control W=0, no growth W=100",44
same,% mycelium growth relative to the control,Sclerotinia sclerotiorum [2]; V8 medium,100%
same,mycelium growth,"Sclerotinia sclerotiorum [2]; V8 medium, control 8.6 cm",8.6 cm
same,EFFICACY W (Abbot),"Sclerotinia sclerotiorum [2]; control W=0, no growth W=100",0
same,Efficacy Peronospora manshurica,Peronospora manshurica,3.32 scale 0-10
same,% mycelium growth relative to the control,[3]; V8 medium,40%
same,mycelium growth,"[3]; V8 medium, control 8.6 cm",3.4 cm
same,EFFICACY W (Abbot),"[3]; control W=0, no growth W=100",60
same,% mycelium growth relative to the control,Phytium ultimum; V8 medium,100%
same,mycelium growth,"Phytium ultimum; V8 medium, control 8.6 cm",8.6 cm
same,EFFICACY W (Abbot),"Phytium ultimum; control W=0, no growth W=100",0
same,% mycelium growth relative to the control,Monilinia fructigena; V8 medium,0%
same,mycelium growth,"Monilinia fructigena; V8 medium, control 5.4 cm",0 cm
same,EFFICACY W (Abbot),"Monilinia fructigena; control W=0, no growth W=100",100
same,% mycelium growth relative to the control,Fusarium equiseti; V8 medium,77%
same,mycelium growth,"Fusarium equiseti; V8 medium, control 8.6 cm",6.6 cm
same,EFFICACY W (Abbot),"Fusarium equiseti; control W=0, no growth W=100",23
same,% mycelium growth relative to the control,Septoria tritici; V8 medium,0%
same,mycelium growth,"Septoria tritici; V8 medium, control 1.9 cm",0 cm
same,EFFICACY W (Abbot),"Septoria tritici; control W=0, no growth W=100",100
same,% mycelium growth relative to the control,Septoria nodorum (1291); V8 medium,30%
same,mycelium growth,"Septoria nodorum (1291); V8 medium, control 5.4 cm",1.6 cm
same,EFFICACY W (Abbot),"Septoria nodorum (1291); control W=0, no growth W=100",70
same,Efficacy Sclerotinia sclerotiorum,Sclerotinia sclerotiorum [4],4.32 scale 0-10
same,Efficacy Phoma lingam,Phoma lingam,3.42 scale 0-10
"N#Cc1c[nH]cc1-c1cccc2c1OC(F)(F)O2 [Fludioxonil, fludioxonil]",effectiveness in reducing the development of pathogens (in words),[5],completely inhibited fungal growth
OC(c1ccc(F)cc1)(c1cncnc1)c1ccccc1Cl (centres unmarked) [Nuarimol],grain yield,spring barley [6],did not increase grain yield
same,plant emergence,spring barley [7],increased emergence
same,control of common root rot / disease ratings,Cochliobolus sativus,statistically significant in disease reduction
C=CCOC(Cn1ccnc1)c1ccc(Cl)cc1Cl (centres unmarked) [imazalil],plant emergence,spring barley [7],increased emergence
"O=C(O)CN(CCN(CC(=O)O)CC(=O)O)CC(=O)O.[Zn+2] [zinc chelated by EDTA, zinc chelated by EDTA (ethylenediamine tetraacetic acid)]",biomass increase (shoots and roots),seeds,neutral to positive influence
same,germination percentage,seeds,neutral to positive influence
